Test results published in ChEMBL document CHEMBL1201862, “PubChem BioAssay data set” (2004).
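Method: 48-hour compound exposure of cells in 96-well plates, five concentrations, linear interpolation of endpoints. The concentration for 50% growth inhibition is given as GI50.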 Calls of active or inactive are those of the source. Cut-off read from the data, not from the text of the source: active = GI50 up to about 1.1 µM and inactive = higher.

How the values were obtained:
Experiment in all cases: NCI tumour cell line growth inhibition, 48 h
SN12C = system: SN12C
LXFL 529 = system: LXFL 529
K562 = system: K562
COLO 205 = system: COLO 205
CAKI-1 = system: CAKI-1
A549 = system: A549
DMS-273 = system: DMS-273
DLD-1 = system: DLD-1
HT-29 = system: HT-29
SF-295 = system: SF-295
NCI-H522 = system: NCI-H522
HOP-18 = system: HOP-18
OVCAR-5 = system: OVCAR-5
SF-268 = system: SF-268
TK-10 = system: TK-10
HCT-116 = system: HCT-116
HCC 2998 = system: HCC 2998
A498 = system: A498
RXF 393 = system: RXF 393
UACC-257 = system: UACC-257
SK-MEL-28 = system: SK-MEL-28
UO-31 = system: UO-31
SNB-78 = system: SNB-78
KM12 = system: KM12
SNB-75 = system: SNB-75
SK-OV-3 = system: SK-OV-3
UACC-62 = system: UACC-62
IGROV-1 = system: IGROV-1
SW-620 = system: SW-620
SK-MEL-5 = system: SK-MEL-5
KM-20L2 = system: KM-20L2
SNB-19 = system: SNB-19
M19-MEL = system: M19-MEL
LOX IMVI = system: LOX IMVI
OVCAR-3 = system: OVCAR-3
OVCAR-4 = system: OVCAR-4
NCI-H460 = system: NCI-H460
HL-60 = system: HL-60
MOLT-4 = system: MOLT-4
NCI-H226 = system: NCI-H226
RXF 631 = system: RXF 631
EKVX = system: EKVX
HOP-62 = system: HOP-62
SF-539 = system: SF-539
Malme-3M = system: Malme-3M
786-0 = system: 786-0
DMS-114 = system: DMS-114
NCI-H23 = system: NCI-H23
U-251 = system: U-251
HOP-92 = system: HOP-92
RPMI-8226 = system: RPMI-8226
OVCAR-8 = system: OVCAR-8
M14 = system: M14
ACHN = system: ACHN
XF498 = system: XF498
HCT-15 = system: HCT-15
SR = system: SR
CCRF-CEM = system: CCRF-CEM
SK-MEL-2 = system: SK-MEL-2

SMILES: Cc1cc(C)nc(NS(=O)(=O)c2ccc(NC(=O)c3ccc(Cl)c4c(Nc5ccc(S(=O)(=O)Nc6cc(C)on6)cc5)c5ccccc5nc34)cc2)n1
- GI50 (SN12C): 17.9 µM (inactive)
- GI50 (LXFL 529): 16.8 µM (inactive)
- GI50 (K562): 20.9 µM (inactive)
- GI50 (COLO 205): 18.1 µM (inactive)
- GI50 (CAKI-1): 15.7 µM (inactive)
- GI50 (A549): 19.7 µM (inactive)
- GI50 (DMS-273): 17.4 µM (inactive)
- GI50 (DLD-1): 16 µM (inactive)
- GI50 (HT-29): 19.5 µM (inactive)
- GI50 (SF-295): 18.2 µM (inactive)
- GI50 (NCI-H522): 16.1 µM (inactive)
- GI50 (HOP-18): 15.7 µM (inactive)
- GI50 (OVCAR-5): 21 µM (inactive)
- GI50 (SF-268): 15 µM (inactive)
- GI50 (TK-10): 18.3 µM (inactive)
- GI50 (HCT-116): 20.4 µM (inactive)
- GI50 (HCC 2998): 18.7 µM (inactive)
- GI50 (A498): 15.3 µM (inactive)
- GI50 (RXF 393): 14.3 µM (inactive)
- GI50 (UACC-257): 18.2 µM (inactive)
- GI50 (SK-MEL-28): 18.4 µM (inactive)
- GI50 (UO-31): 17.6 µM (inactive)
- GI50 (SNB-78): 13.9 µM (inactive)
- GI50 (KM12): 18.4 µM (inactive)
- GI50 (SNB-75): > 10 µM (inactive)
- GI50 (SK-OV-3): 19.4 µM (inactive)
- GI50 (UACC-62): 17.1 µM (inactive)
- GI50 (IGROV-1): 20.1 µM (inactive)
- GI50 (SW-620): 17.3 µM (inactive)
- GI50 (SK-MEL-5): 16.4 µM (inactive)
- GI50 (KM-20L2): 18.5 µM (inactive)
- GI50 (SNB-19): 17 µM (inactive)
- GI50 (M19-MEL): 21 µM (inactive)
- GI50 (LOX IMVI): 15.8 µM (inactive)
- GI50 (OVCAR-3): 16.6 µM (inactive)
- GI50 (OVCAR-4): 16.7 µM (inactive)
- GI50 (NCI-H460): 18 µM (inactive)
- GI50 (HL-60): 8.95 µM (inactive)
- GI50 (MOLT-4): 22.9 µM (inactive)
- GI50 (NCI-H226): 17.5 µM (inactive)
- GI50 (RXF 631): 17.7 µM (inactive)
- GI50 (EKVX): 19 µM (inactive)
- GI50 (HOP-62): 16.3 µM (inactive)
- GI50 (SF-539): 18.7 µM (inactive)
- GI50 (Malme-3M): 20.9 µM (inactive)
- GI50 (786-0): 17 µM (inactive)
- GI50 (DMS-114): 17.9 µM (inactive)
- GI50 (NCI-H23): 14.5 µM (inactive)
- GI50 (U-251): 15.3 µM (inactive)
- GI50 (HOP-92): 16.3 µM (inactive)
- GI50 (RPMI-8226): 17.9 µM (inactive)
- GI50 (OVCAR-8): 15.5 µM (inactive)
- GI50 (M14): 18.8 µM (inactive)
- GI50 (ACHN): 18.9 µM (inactive)

SMILES: O=C(N/C(=C\c1ccc2c(c1)OCO2)c1nc2ccccc2[nH]1)c1ccccc1
- GI50 (SN12C): 30.2 µM (inactive)
- GI50 (LXFL 529): 20.4 µM (inactive)
- GI50 (K562): 24.3 µM (inactive)
- GI50 (COLO 205): 25.1 µM (inactive)
- GI50 (CAKI-1): 33.6 µM (inactive)
- GI50 (XF498): 15.5 µM (inactive)
- GI50 (A549): 35.2 µM (inactive)
- GI50 (DMS-273): 28.8 µM (inactive)
- GI50 (DLD-1): 30.8 µM (inactive)
- GI50 (HT-29): 4.98 µM (inactive)
- GI50 (SF-295): 43.7 µM (inactive)
- GI50 (NCI-H522): 14.7 µM (inactive)
- GI50 (HOP-18): 43.6 µM (inactive)
- GI50 (OVCAR-5): 37.6 µM (inactive)
- GI50 (SF-268): 38.2 µM (inactive)
- GI50 (TK-10): 29.2 µM (inactive)
- GI50 (HCT-116): 31.3 µM (inactive)
- GI50 (HCC 2998): 27.7 µM (inactive)
- GI50 (HCT-15): 35.6 µM
- GI50 (A498): 33.1 µM (inactive)
- GI50 (RXF 393): 24.7 µM (inactive)
- GI50 (UACC-257): 19.6 µM (inactive)
- GI50 (SK-MEL-28): 17.6 µM (inactive)
- GI50 (UO-31): 24.6 µM (inactive)
- GI50 (SNB-78): 39.4 µM (inactive)
- GI50 (KM12): 32.7 µM (inactive)
- GI50 (SNB-75): 20.9 µM (inactive)
- GI50 (SK-OV-3): 35.6 µM (inactive)
- GI50 (SR): 21.9 µM (inactive)
- GI50 (UACC-62): 20.9 µM (inactive)
- GI50 (IGROV-1): 27.7 µM (inactive)
- GI50 (SW-620): 33.6 µM (inactive)
- GI50 (SK-MEL-5): 16 µM (inactive)
- GI50 (KM-20L2): 33.7 µM (inactive)
- GI50 (SNB-19): 36 µM (inactive)
- GI50 (M19-MEL): 3.03 µM (inactive)
- GI50 (LOX IMVI): 38.5 µM (inactive)
- GI50 (OVCAR-3): 24.7 µM (inactive)
- GI50 (CCRF-CEM): 26.9 µM (inactive)
- GI50 (OVCAR-4): 19.7 µM (inactive)
- GI50 (NCI-H460): 34.8 µM (inactive)
- GI50 (HL-60): 14.8 µM (inactive)
- GI50 (MOLT-4): 20.2 µM (inactive)
- GI50 (NCI-H226): 21 µM (inactive)
- GI50 (EKVX): 41.2 µM (inactive)
- GI50 (HOP-62): 24.5 µM (inactive)
- GI50 (SF-539): 24.9 µM (inactive)
- GI50 (Malme-3M): 34.2 µM (inactive)
- GI50 (786-0): 59.2 µM (inactive)
- GI50 (DMS-114): 2.39 µM (inactive)
- GI50 (SK-MEL-2): 26.4 µM (inactive)
- GI50 (NCI-H23): 18.6 µM (inactive)
- GI50 (U-251): 32 µM (inactive)
- GI50 (HOP-92): 18.8 µM (inactive)
- GI50 (RPMI-8226): 32.2 µM (inactive)
- GI50 (OVCAR-8): 37 µM (inactive)
- GI50 (M14): 25.1 µM (inactive)
- GI50 (ACHN): 33.3 µM (inactive)
